Records with an inconclusive call do not appear. Activity calls are given as the source filed them. How the calls were made is not given here.

A short description of the first assay: NIH/3T3 fibroblast cytotoxicity, dose response, cytotoxicity control, cell-based, plate reader, dry powder, set 2 (AID 652280). Conditions: NIH/3T3 mouse fibroblast toxicity, plate reader; at 16 µM (top of the series).
For the molecule `CCC(=O)N1CC[C@@H]2[C@H]1c1cc(Br)ccc1N(C)[C@@H]2CO`, the activity change, negative = toxicity is -1.86% (inactive).
Still for that read-out and setting: in the case of `CC(C)N1C[C@H](C)[C@@H](CN(C)Cc2ccc(Cl)cc2)Oc2c(cccc2-c2nnn(-c3ccncc3)n2)C1=O` it was 65.7% (inactive); in that of `CC(C)(C)S(=O)N1Cc2cc(C(=O)NCc3ccc4c(c3)OCO4)nc(-c3cccc(C#CCC4CCCC4)c3)c2[C@H]1CCO` (stereo not given in full), 96.9% (inactive); in that of `CN(C)CC#Cc1cccc(-c2nc(C(=O)NCCCN3CCOCC3)cc3c2[C@H](CCO)N(S(=O)C(C)(C)C)C3)c1` (stereo not given in full), 16% (inactive).
The same measure, in the same setting: in the case of `CN(C)C(=O)c1cccc(-c2ccc([C@H]3[C@@H](CO)N4CCCCN(C(=O)C5CCC5)C[C@@H]34)cc2)c1` it was 1.53% (inactive); in that of `CN(C)C(=O)c1ccc(-c2ccc([C@H]3[C@H](CO)N4CCCCN(Cc5cncnc5)C[C@@H]34)cc2)cc1`, 10.1% (inactive); in that of `CC(C)N1C[C@H](CNCc2ccc(Cl)cc2)Oc2c(NC(=O)c3ccncc3)cccc2C1=O`, -20.3% (inactive).
The same measure, in the same setting: the same measure for `CC(C)N1C[C@H](CN2Cc3ccccc3C2)Oc2c(NC(=O)c3ccncc3)cccc2C1=O`: 1.03% (inactive); for `C[C@H]1CN([C@@H](C)CO)C(=O)c2cccc(NC(=O)c3ccncc3)c2O[C@@H]1CN(C)Cc1cccc(Cl)c1`: -20.7% (inactive).
`CC(C)N1C[C@@H](CN(C)Cc2ccc(Cl)cc2)Oc2c(NC(=O)c3ccccc3)cccc2C1=O`: the activity change, negative = toxicity is 9.38% (inactive).
Still for that read-out and setting: in the case of `CN(C)C(=O)c1ccc(-c2ccc([C@H]3[C@H](CO)N4CCCCN(C(=O)C5CCC5)C[C@@H]34)cc2)cc1` it was -17% (inactive); in that of `C[C@@H](CO)N1CC[C@H](CNC(=O)OC(C)(C)C)Oc2c(NC(=O)c3ccncc3)cccc2C1=O`, 2.74% (inactive); in that of `CC(C)(C)S(=O)N1Cc2cc(C(=O)NCc3ccc4c(c3)OCO4)nc(-c3cccc(-c4cccc(F)c4)c3)c2[C@H]1CCO` (stereo not given in full), 12.7% (inactive).
On the same count and under the same terms, the same measure for `C[C@H]1CN([C@@H](C)CO)C(=O)c2cccc(NC(=O)c3ccncc3)c2O[C@@H]1CN(C)Cc1ccc(Cl)c(F)c1`: -25.3% (inactive); for `C[C@@H]1CN([C@@H](C)CO)C(=O)c2cc(Br)cnc2O[C@H]1CN(C)Cc1ccc2c(c1)OCO2`: -12% (inactive).
Turning to `C[C@H]1CN([C@@H](C)CO)C(=O)c2cccc(NC(=O)c3ccncc3)c2O[C@@H]1CN(C)Cc1ccc(Cl)cc1`, the activity change, negative = toxicity is -41.2% (inactive).
The same measure, in the same setting: in the case of `CN(C)CC#Cc1cccc(-c2nc(C(=O)N3CCN(C)CC3)cc3c2[C@H](CCO)N(S(=O)C(C)(C)C)C3)c1` (stereo not given in full) it was 16.4% (inactive); in that of `CN(C)C(=O)c1cccc(-c2ccc([C@@H]3[C@@H](CO)N4CCCCN(C(=O)C5CCC5)C[C@@H]34)cc2)c1`, 0.445% (inactive); in that of `CN(C)C(=O)c1cccc(-c2ccc([C@H]3[C@@H](CO)N4CCCCN(C(=O)C5CCCC5)C[C@@H]34)cc2)c1`, 28.8% (inactive).
Turning to `CC(C)N1CC2(CN(Cc3ccccn3)C2)Oc2c(NC(=O)c3ccncc3)cccc2C1=O`, the activity change, negative = toxicity is -3.3% (inactive).
Same read-out and setting: in the case of `CN(C)CC#Cc1cccc(-c2nc(C(=O)N3CCN(C)CC3)cc3c2[C@@H](CCO)N(S(=O)C(C)(C)C)C3)c1` (stereo not given in full) it was 18.9% (inactive); in that of `CC(C)N1C[C@@H](C)[C@H](CN(C)Cc2ccc(Oc3ccccc3)cc2)Oc2c(cccc2N(C)C(=O)c2ccncc2)C1=O`, -4.89% (inactive); in that of `CC(C)N1C[C@@H](CN(C)Cc2ccc(Cl)cc2)Oc2c(NC(=O)c3ccnn3C)cccc2C1=O`, 5.57% (inactive).
Still for that read-out and setting: the same measure for `CN1CCCCN2[C@@H](CO)[C@H](c3ccc(Br)cc3)[C@@H]2C1`: -2.42% (inactive); for `CC(C)N1C[C@@H](CN)Oc2c(NC(=O)c3ccncc3)cccc2C1=O`: 22.7% (inactive); for `C[C@H]1CN([C@@H](C)CO)C(=O)c2cccc(NC(=O)c3ccncc3)c2O[C@@H]1CN(C)Cc1cc(Cl)ccc1Cl`: 3.82% (inactive).
Take `CC(C)N1CC2(CN(C(=O)c3ccc(Cl)cc3)C2)Oc2c(NC(=O)c3ccncc3)cccc2C1=O`: the activity change, negative = toxicity was 10.5% (inactive).
As for `COc1cccc(-c2ccc([C@H]3[C@H](CO)N4CCCCN(C(=O)Cc5ccncc5)C[C@@H]34)cc2)c1`, the activity change, negative = toxicity is -1.62% (inactive).
Turning to `CC(C)N1C[C@@H](C)[C@H](CN(C)Cc2ccc(Oc3ccccc3)cc2)Oc2c(C(=O)O)cccc2C1=O`, the activity change, negative = toxicity is 9.6% (inactive).
For `COc1ccc(S(=O)(=O)N(C)C[C@H]2OCCCC[C@@H](C)Oc3ccc(N(C)C)cc3C(=O)N([C@H](C)CO)C[C@@H]2C)cc1`, the activity change, negative = toxicity was 12.3% (inactive).
Same read-out and setting: the same measure for `Cc1cccc(CN(C)C[C@H]2Oc3c(NC(=O)c4ccncc4)cccc3C(=O)N([C@@H](C)CO)C[C@@H]2C)c1`: -19.1% (inactive); for `COC[C@H](C)N1C[C@H](C)[C@@H](CN(C)Cc2ccc(Cl)cc2)Oc2c(NC(=O)c3ccncc3)cccc2C1=O`: 2.38% (inactive).
On the same count and under the same terms, in the case of `Cc1ccccc1-c1ccc([C@H]2[C@H](CO)N3CCCCN(C(=O)c4cccnc4)C[C@@H]23)cc1` it was -15% (inactive); in that of `CCC(=O)N1CC[C@@H]2[C@H]1c1cc(-c3ccccc3)ccc1N(C)[C@@H]2CO`, -26.5% (inactive); in that of `CC(C)N1CC2(CN(Cc3ccc(-c4cccnc4)cc3)C2)Oc2c(NC(=O)c3ccncc3)cccc2C1=O`, -22.8% (inactive).
Same read-out and setting: in the case of `CN(C)CC#Cc1cccc(-c2nc(C(=O)NCc3ccc(Oc4ccccc4)cc3)cc3c2[C@H](CCO)N(S(=O)C(C)(C)C)C3)c1` (stereo not given in full) it was 63.9% (inactive); in that of `O=C(Cc1ccccn1)N1CCCCN2[C@@H](CO)[C@H](c3ccc(-c4ccccc4)cc3)[C@@H]2C1`, -15.8% (inactive).
As for `CC(C)N1C[C@H](C)[C@@H](CN(C)Cc2ccc(Oc3ccccc3)cc2)Oc2c(cccc2-c2nn[nH]n2)C1=O`, the activity change, negative = toxicity was 28.7% (inactive).
Same read-out and setting: in the case of `C[C@@H]1CN([C@@H](C)CO)C(=O)c2cccc(NC(=O)c3ccncc3)c2O[C@@H]1CN(C)Cc1ccc(Oc2ccccc2)cc1` it was 15.4% (inactive); in that of `Cc1cccc(-c2ccc([C@H]3[C@H](CO)N4CCCCN(C(=O)c5cccnc5)C[C@@H]34)cc2)c1`, -10.6% (inactive).
In the case of `CC(C)N1C[C@H](C)[C@@H](CN(C)Cc2ccc(Cl)c(Cl)c2)Oc2c(cccc2-c2nn[nH]n2)C1=O`, the activity change, negative = toxicity is -0.771% (inactive).
Same read-out and setting: the same measure for `COc1cccc(CN(C)C[C@H]2Oc3c(NC(=O)c4ccncc4)cccc3C(=O)N([C@@H](C)CO)C[C@@H]2C)c1`: 6.03% (inactive); for `CN(C)C(=O)c1cccc(-c2ccc([C@H]3[C@H]4CN(C(=O)C5CCC5)CCCCN4[C@H]3CO)cc2)c1`: 24.3% (inactive); for `CNC[C@@H]1Oc2c(NC(=O)c3ccncc3)cccc2C(=O)N(C(C)C)C[C@H]1C`: 1.96% (inactive).
Still for that read-out and setting: in the case of `C[C@H]1CN([C@@H](C)CO)C(=O)c2cccc(NC(=O)c3ccncc3)c2O[C@@H]1CN(C)Cc1ccc(F)cc1Cl` it was -10.1% (inactive); in that of `CC(C)N1C[C@@H](C)[C@H](CN(C)C(=O)OC(C)(C)C)Oc2c(C#N)cccc2C1=O`, -6.53% (inactive); in that of `CC(C)N1CC2(CN(Cc3ccccc3)C2)Oc2c(NC(=O)c3ccncc3)cccc2C1=O`, -2.24% (inactive).
Take `CC(C)N1CC2(CN(Cc3ccccc3Cl)C2)Oc2c(NC(=O)c3ccncc3)cccc2C1=O`: the activity change, negative = toxicity was -16.5% (inactive).
In the case of `CC(C)(C)[S@](=O)N1Cc2cc(C(=O)NCc3ccc4c(c3)OCO4)nc(-c3cccc(-c4ccncc4)c3)c2[C@@H]1CCO`, the activity change, negative = toxicity was -21.4% (inactive).
With `CN(C)C(=O)c1cccc(-c2ccc([C@H]3[C@@H](CO)N4CCCCN(C(=O)C5CCC5)C[C@H]34)cc2)c1`, the activity change, negative = toxicity was 9.2% (inactive).
As for `COCCNC(=O)c1cc2c(c(-c3cccc(C#CCN(C)C)c3)n1)[C@@H](CCO)N(S(=O)C(C)(C)C)C2` (stereo not given in full), the activity change, negative = toxicity is 5.61% (inactive).
As to `CC(C)N1C[C@@H](CN(C)Cc2ccc(Cl)cc2)Oc2c(NC(=O)c3ncn[nH]3)cccc2C1=O`, the activity change, negative = toxicity is 0.096% (inactive).
Still for that read-out and setting: the same measure for `CC(C)(O)C#Cc1cccc(-c2nc(C(=O)NCc3ccc4c(c3)OCO4)cc3c2[C@H](CCO)N(S(=O)C(C)(C)C)C3)c1` (stereo not given in full): -19.2% (inactive); for `CC(C)N1CC2(CN(Cc3ccccc3F)C2)Oc2c(NC(=O)c3ccncc3)cccc2C1=O`: 6.11% (inactive).
Consider `CN(C)C(=O)c1cccc(-c2ccc([C@H]3[C@H](CO)N4CCCCN(C(=O)C5CCC5)C[C@@H]34)cc2)c1`, for which the activity change, negative = toxicity was 11.8% (inactive).
On the same count and under the same terms, the same measure for `OC[C@H]1[C@H](c2ccc(Br)cc2)[C@@H]2CN(Cc3ccccn3)CCCCN12`: 5.37% (inactive); for `Cc1ccccc1CN(C)C[C@H]1Oc2c(NC(=O)c3ccncc3)cccc2C(=O)N([C@@H](C)CO)C[C@@H]1C`: -4.8% (inactive); for `CC(C)(C)[S@@](=O)N1Cc2cc(C(=O)NCc3ccc4c(c3)OCO4)nc(-c3cccc(-c4ccccc4)c3)c2[C@H]1CCO`: 14.4% (inactive).
On the same count and under the same terms, in the case of `CC(C)N1C[C@@H](CN(C)Cc2ccc(Cl)cc2)Oc2c(C(=O)Nc3ccnnc3)cccc2C1=O` it was -4.49% (inactive).

Staying with this assay, now noted: NIH/3T3 mouse fibroblast toxicity, plate reader; at 18 µM (top of the series).
As to `Cc1ccc(S(=O)(=O)N(C)C[C@H]2OCCCC[C@@H](C)Oc3ccc(N(C)C)cc3C(=O)N([C@H](C)CO)C[C@@H]2C)cc1`, the activity change, negative = toxicity was 25.8% (inactive).

For the origin of these results see PubChem BioAssay AID652280 (Broad Institute, 2013).
